Calls of active or inactive are those of the source. The calls are words filed in the database; no cut-off is given here.
Assays:
P388 = test: Cytotoxicity against mouse P388 cells at 1 ug/ml; format: functional, cell-based
[1] = Cytotoxicity against african green monkey CV1 cells; format: cell-based; details: chlorocebus aethiops, cv-1

For C[C@H]1CCC=C2CCC(C(C)(O)CO)=C[C@@]21C (some centres not stated), the Activity (P388) was “Active” and the Activity [1] was 10 µg/mL.

— ChEMBL document CHEMBL1147351, “Sesquiterpenoids and norsesquiterpenoids from the soft coral Lemnalia africana” (J Nat Prod, 1993)
